In ChEMBL document CHEMBL1151553, “Two novel amino acid derivatives containing side-chain thioamides for the synthesis of photoactivatable peptides” (Bioorg Med Chem Lett, 1997):
Numbered stars: 1 amine (or outer) side, 2 acyl side, 3 side chain; on linkers, the order of the positions; unused ones are H or OH. Square brackets hold non-standard residues; d marks the D form. Peptide text beside a SMILES is read from it. X2 = O=C([C@@H](Cc1ccc(NC(=S)Cc2ccccc2)cc1)N[*:1])[*:2]; X1 = O=C([C@@H](Cc1ccc(NC(=S)c2ccccc2)cc1)N[*:1])[*:2]; hCys = N[C@@H](CCS)C(=O)O

Target: T1, Substance-K receptor (Homo sapiens, UniProt P21452)
T1 sequence (P21452 whole entry): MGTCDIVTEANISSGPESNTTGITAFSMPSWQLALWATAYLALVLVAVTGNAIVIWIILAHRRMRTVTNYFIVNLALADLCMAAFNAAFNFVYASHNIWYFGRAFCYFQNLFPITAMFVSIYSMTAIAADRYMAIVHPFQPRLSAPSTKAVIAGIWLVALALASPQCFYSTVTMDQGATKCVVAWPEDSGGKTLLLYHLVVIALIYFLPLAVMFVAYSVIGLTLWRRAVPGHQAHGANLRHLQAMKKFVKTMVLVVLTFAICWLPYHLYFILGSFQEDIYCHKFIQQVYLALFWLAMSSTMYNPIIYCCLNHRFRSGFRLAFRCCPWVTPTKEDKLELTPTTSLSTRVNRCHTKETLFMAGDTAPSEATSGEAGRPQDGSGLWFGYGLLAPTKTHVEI
Test: Tested for the binding affinity to human NK2 receptor expressed in Sf-9 insect larval cells using 0.1 nM 2-[125 I] iodohistidyl neurokinin A
Format: functional

Row | IC50 [nM] | SMILES
1 | 7.72 | CC(C)C[C@H](NC(=O)CNC(=O)[C@@H](NC(=O)[C@H](Cc1ccccc1)NC(=O)[C@H](CO)NC(=O)[C@H](CC(=O)O)NC(=O)[C@@H](NC(=O)[C@H](CCCCN)NC(=O)[C@@H](Cc1ccc(NC(=S)c2ccccc2)cc1)NC(=O)[C@@H](N)Cc1c[nH]cn1)[C@@H](C)O)C(C)C)C(=O)N[C@@H](CCS)C(N)=O (H-H[X1]KTDSFVGL[hCys]-NH2)
2 | 53.4 | CC(C)C[C@H](NC(=O)CNC(=O)[C@@H](NC(=O)[C@H](Cc1ccccc1)NC(=O)[C@H](CO)NC(=O)[C@H](CC(=O)O)NC(=O)[C@@H](NC(=O)[C@H](CCCCN)NC(=O)[C@@H](Cc1ccc(NC(=S)Cc2ccccc2)cc1)NC(=O)[C@@H](N)Cc1ccc(O)cc1)[C@@H](C)O)C(C)C)C(=O)N[C@@H](CCS)C(N)=O (H-Y[X2]KTDSFVGL[hCys]-NH2)
